We go through 48 compounds from the supplement of paper PMC10949913.

Experiment in all cases: area under concentration-response curve (viability) (AUC (a.u.)); higher = less active
Holding throughout (conditions): 48 h

For one assay, the system named is NCI-H295R. The essentials: (§1)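 In 1,536-well plates, 500–1,000 cells/well of three adrenocortical carcinoma cell lines in 5 µL medium received 23 nL of each library compound across 11 concentrations. At 48 h, CellTiter-Glo was incubated for 15 minutes at room temperature and luminescence measured. Per-plate normalisation used vehicle and empty-well controls, and only inhibitory or non-responding curve classes were kept when fitting concentration-response curves for AC50 and area under the curve.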

For the next assay, the system named is CU-ACC2. In short, it runs like this:
as §1

In the next assay the test system is CU-ACC1. In short, it runs like this:
as §1

With `C[C@@H](O)[C@@H]1NC(=O)[C@H](CCCCN)NC(=O)[C@@H](Cc2c[nH]c3ccccc23)NC(=O)[C@H](Cc2ccccc2)NC(=O)[C@@H](NC(=O)[C@H](N)Cc2ccccc2)CSSC[C@@H](C(=O)N[C@H](CO)[C@@H](C)O)NC1=O`, the “area under concentration-response curve” value with NCI-H295R was determined as 612; with CU-ACC2, 648.

With `NC\1=N\C(=O)N(\C=C1)[C@@H]2O[C@H](CO)[C@@H](O)[C@@H]2O`, the “area under concentration-response curve” value in the assay on NCI-H295R came to 504; in the assay with CU-ACC2 it was 551.

Consider `Nc1cccc([S+](=O)([O-])N2CCCN([S+](=O)([O-])c3ccc4c(c3)OCCO4)CC2)c1`, for which the “area under concentration-response curve” value was determined as 546 in the assay with NCI-H295R and 634 with CU-ACC2.

Regarding `C[C@@H](NC1=CC=CC=C1C(O)=O)C/2=C/C(=C\N3C(=O)/C=C(\N=C23)N4CCOCC4)C`, the figures for the “area under concentration-response curve” value in the assay with NCI-H295R and in the assay with CU-ACC2 were 543 and 535, respectively.

With `COc1ccc(C(=O)CC(=O)c2ccc(C(C)(C)C)cc2)cc1`, the “area under concentration-response curve” value with NCI-H295R worked out at 543; in the assay on CU-ACC2 it was 595.

As for `C[C@@H]1Cc2c([nH]c3ccccc23)[C@@H](c2c(F)cc(/C=C/C(=O)O)cc2F)N1CC(C)(C)F`, the results for the “area under concentration-response curve” value with NCI-H295R and in the assay on CU-ACC2 were 593 and 615, respectively.

For the compound `OCc1ccccc1O[C@@H]1O[C@H](CO)[C@@H](O)[C@H](O)[C@H]1O`, the results for the “area under concentration-response curve” value with NCI-H295R and with CU-ACC2 were 563 and 616, respectively.

Take `CCC(=O)Nc1cccc(Oc2nc(Nc3ccc(N4CCN(C)CC4)cc3OC)ncc2Cl)c1`: the “area under concentration-response curve” value in the assay with NCI-H295R was found to be 465; in the assay on CU-ACC2, 523.

Turning to `CC1=C(C=CC=C1)N2/N=C(\C=C/C2=O)C3=C4NC[C@@H](CO)C[N]4N=C3C5=CC=C(F)C=C5`, the “area under concentration-response curve” value was found to be 435 with NCI-H295R and 422 in the assay on CU-ACC2.

Consider `CCC1(c2ccccc2)C(=O)NCNC1=O`, for which the “area under concentration-response curve” value in the assay with NCI-H295R stood at 521; with CU-ACC2 it was 566.

For `Cc1ccc2c(=O)c3cccc(CC(=O)O)c3oc2c1C`, the “area under concentration-response curve” value with NCI-H295R was determined as 486; with CU-ACC2 it was 540.

In the case of `O=C(COCC(=O)N1CCN(C(c2ccccc2)c2ccccc2)CC1)Nc1ccc(Cl)cc1C(=O)O`, the “area under concentration-response curve” value in the assay on NCI-H295R came out at 538; in the assay on CU-ACC2, 529.

Consider `CC[C@]12CC[C@H]3[C@@H](CCC/4=C/C(=O)CC[C@H]34)[C@@H]1\C=C/[C@@]2(O)C#C`, for which the “area under concentration-response curve” value in the assay on NCI-H295R was found to be 602; with CU-ACC2 it was 623.

Regarding `OC(=O)C/1=C/C(=O)NC(=O)N1`, the “area under concentration-response curve” value with NCI-H295R came out at 529; with CU-ACC2 it was 530.

On to `Cc1cc(O)c2c(c1)C(=O)c1cccc(O)c1C2=O`, for which the “area under concentration-response curve” value is 552 in the assay with NCI-H295R and 604 in the assay on CU-ACC2.

Turning to `C[C@]12CCC\3=C\4CCC(=O)\C=C4CC[C@H]3[C@@H]1CC[C@@]2(O)CC#N`, the “area under concentration-response curve” value in the assay on NCI-H295R is 606; with CU-ACC2, 649.

`Cc1cc(-c2cc(OC(=O)c3ccccc3)ccc2Cl)cc2nnc(Nc3ccc(OCCN4CCCC4)cc3)nc12`: the “area under concentration-response curve” value in the assay with NCI-H295R came out at 612; in the assay with CU-ACC2, 664.

Turning to `NNC(=O)c1ccncc1`, the “area under concentration-response curve” value with NCI-H295R amounted to 554; in the assay on CU-ACC2 it was 500.

As to `NC(=O)c1cccnc1`, the “area under concentration-response curve” value was found to be 569 with NCI-H295R and 608 in the assay with CU-ACC2.

Take `COC(=O)N(CC(=O)O)Cc1cccc(OCc2nc(-c3ccc(Cl)cc3)oc2C)c1`: the “area under concentration-response curve” value stood at 452 in the assay on NCI-H295R and 553 with CU-ACC2.

In the case of `CO[C@@H]1COCC[C@@H]1N[C@@H]1CC[C@@](C(=O)N2CCc3ncc(C(F)(F)F)cc3C2)(C(C)C)C1`, the “area under concentration-response curve” value came to 591 in the assay with CU-ACC1 and 640 with CU-ACC2.

On to `CC/C(=C(/c1ccc(/C=C/C(=O)O)cc1)c1ccc2[nH]ncc2c1)c1ccc(F)cc1Cl`, for which the figures for the “area under concentration-response curve” value in the assay with CU-ACC1 and in the assay on CU-ACC2 were 501 and 508, respectively.

On to `CCC(C)(C)c1ccc(CC(C)CN2C[C@@H](C)O[C@@H](C)C2)cc1` (stereo partly specified), for which the results for the “area under concentration-response curve” value in the assay with CU-ACC1 and in the assay on CU-ACC2 were 462 and 504, respectively.

Consider `CC[C@@]1([C@@H]2O[C@@H]([C@H]3O[C@@](O)(CO)[C@H](C)C[C@@H]3C)C[C@@H]2C)CC[C@H]([C@]2(C)CC[C@]3(C[C@H](O)[C@@H](C)[C@@H]([C@@H](C)[C@@H](OC)[C@H](C)C(=O)[O-])O3)O2)O1`, for which the “area under concentration-response curve” value in the assay on CU-ACC1 worked out at 427; with CU-ACC2 it was 410.

With `CC1=C(/C=C/C(C)=C/C=C/C(C)=C\C(=O)O)C(C)(C)CCC1`, the results for the “area under concentration-response curve” value in the assay with CU-ACC1 and with CU-ACC2 were 491 and 586, respectively.

In the case of `COc1c(C)cc(NC(=O)c2nn(Cc3ccc(F)cc3)c3c2CN(C(=O)c2ccc[nH]2)C[C@]3(C)C(N)=O)cc1C`, the “area under concentration-response curve” value in the assay with CU-ACC1 stood at 567; in the assay on CU-ACC2, 646.

Turning to `C[N]1C=C(C2=CC=CC=C12)\C3=C(\C(=O)NC3=O)C4=C[N](C5CCN(CC5)CC6=NC=CC=C6)C7=C4C=CC=C7`, the results for the “area under concentration-response curve” value in the assay on CU-ACC1 and with CU-ACC2 were 494 and 500, respectively.

Turning to `C[C@]12CC[C@H]3[C@@H](CC[C@@]45O[C@@H]4\C(=C(/C[C@]35C)C#N)O)[C@@H]1CC[C@@H]2O`, the “area under concentration-response curve” value came out at 571 in the assay on CU-ACC1 and 590 with CU-ACC2.

As for `CCN(c1ccccc1)c1cc(NC)[n+](C)c(C)n1`, the “area under concentration-response curve” value with CU-ACC1 was 574; in the assay with CU-ACC2, 600.

For `Cc1c(C(=O)Nc2cccc(C(F)(F)F)c2)cc(-c2ccccc2)n1CCCN1CCOCC1`, the entries for the “area under concentration-response curve” value in the assay on CU-ACC1 and in the assay on CU-ACC2 were 573 and 610, respectively.

For the compound `CC1(CN2CCC(n3c(=O)[nH]c4ccccc43)CC2)OCc2ccccc2-n2cccc21` (stereo unspecified), the “area under concentration-response curve” value with CU-ACC1 came out at 494; with CU-ACC2, 556.

With `NC\1=N\C(=O)N(\C=C1)[C@@H]2O[C@H](CO)[C@@H](O)[C@H]2O`, the “area under concentration-response curve” value in the assay with CU-ACC1 is 582; in the assay with CU-ACC2, 610.

On to `N#Cc1ccc(NC(=O)Nc2ccccc2Br)c2nn[nH]c12`, for which the “area under concentration-response curve” value was 573 in the assay on CU-ACC1 and 638 in the assay with CU-ACC2.

As to `C=CC(=O)N[C@H]1CN(c2nc(Nc3cn(C)nc3OC)c3ncn(C)c3n2)C[C@@H]1F`, the “area under concentration-response curve” value is 401 in the assay on CU-ACC1 and 422 with CU-ACC2.

For the compound `Nc1nc(-c2nn(Cc3ccccc3F)c3ncccc23)nc(N)c1N1CCOCC1`, the “area under concentration-response curve” value came out at 605 with CU-ACC1 and 599 in the assay on CU-ACC2.

As for `CCO[C@@H]1OC(=O)C[C@@H]1NC(=O)[C@@H]1CCCN1C(=O)[C@@H](NC(=O)c1ccc(N)c(Cl)c1)C(C)(C)C`, the entries for the “area under concentration-response curve” value in the assay with CU-ACC1 and with CU-ACC2 were 493 and 518, respectively.

In the case of `COC1=CC2=C(OC\C(=C2\C3=CC=C(F)C=C3)CN4CCCC4)C=C1`, the “area under concentration-response curve” value came to 500 with CU-ACC1 and 560 in the assay with CU-ACC2.

For `C[C@H](NC1=NC=NC2=C1[NH]C=N2)\C3=N\C4=C(C=C(F)C=C4)C(=O)N3C5=CC=CC=C5`, the “area under concentration-response curve” value in the assay on CU-ACC1 came out at 344; in the assay on CU-ACC2, 280.

`C\C1=C\C(=O)OC2=C1C=CC(=C2)O`: the entries for the “area under concentration-response curve” value in the assay with CU-ACC1 and with CU-ACC2 were 473 and 552, respectively.

With `ClC1=CC=C(C=C1)C(C#N)C2=C(Cl)C=C(C=C2Cl)N3\N=C/C(=O)NC3=O` (stereo unspecified), the “area under concentration-response curve” value in the assay on CU-ACC1 is 524; in the assay on CU-ACC2, 626.

Consider `CN1C(=N)N[C@](C)(c2cc(NC(=O)c3ccc(F)cn3)ccc2F)C[S+]1(=O)[O-]`, for which the “area under concentration-response curve” value with CU-ACC1 was 563; in the assay with CU-ACC2 it was 611.

Take `C[C@H]1CN(C[C@@H](C)O1)CC(=O)NC2=CC=C3SC4=C(CC3=C2)C=CC=C4\C5=C\C(=O)\C=C(/O5)N6CCOCC6`: the “area under concentration-response curve” value in the assay on CU-ACC1 is 439; in the assay on CU-ACC2 it was 428.

On to `COc1ccc2[nH]c([S+]([O-])Cc3ncc(C)c(OC)c3C)nc2n1` (stereo unspecified), for which the “area under concentration-response curve” value is 542 with CU-ACC1 and 637 in the assay with CU-ACC2.

With `CC(C)c1ccc2c(c1)c(SC(C)(C)C)c(CC(C)(C)C(=O)[O-])n2Cc1ccc(Cl)cc1`, the “area under concentration-response curve” value came out at 457 with CU-ACC1 and 572 in the assay on CU-ACC2.

For the compound `C[C@]12CC[C@@H]3c4ccc(O)cc4CC[C@H]3[C@@H]1C[C@@H](O)[C@@H]2O`, the results for the “area under concentration-response curve” value with CU-ACC1 and with CU-ACC2 were 388 and 398, respectively.

For `CCc1nc(-c2cccc(C)c2)c(-c2ccnc(NC(=O)c3ccccc3)c2)s1`, the “area under concentration-response curve” value is 490 with CU-ACC1 and 574 with CU-ACC2.

On to `CC1(C)O[C@@H]2C[C@H]3[C@@H]4C[C@H](F)C/5=C/C(=O)/C=C\[C@]5(C)[C@@]4(F)[C@@H](O)C[C@]3(C)[C@@]2(O1)C(=O)CO`, for which the “area under concentration-response curve” value in the assay on CU-ACC1 came to 485; in the assay with CU-ACC2, 586.

Turning to `CC1(N)CCN(c2cccnc2NC(=O)c2nc(-c3ncccc3C(F)(F)F)cnc2N)CC1`, the “area under concentration-response curve” value came to 430 in the assay on CU-ACC1 and 509 in the assay on CU-ACC2.
